A word on the melting point: it is the temperature of the solid-liquid transition. `CC(C)OC(=O)Nc1c(F)cc(-c2c(C#N)c3ccc(OCCF)cc3n2C2CCC2)cc1F` [Compound 3039] showed a melting point of 150 to 155 °C.
The same measure for `C[C@@H](OC(=O)Nc1c(F)cc(-c2c(C#N)c3ccc(OCCF)cc3n2C2CCC2)cc1F)C1CC1` [Compound 3040]: 176 to 180 °C.
Next, `CC(C)NC(=O)Nc1c(F)cc(-c2c(C#N)c3ccc(OCCF)cc3n2C2CCC2)cc1F` [Compound 3041]: 224 to 229 °C; `C[C@@H](OC(=O)Nc1ccc(-c2c(C#N)c3ccc(-c4ccnn4C)cc3n2C2CCC2)cc1)C1CC1` [Compound 3046]: 195 to 197 °C.
The same measure for `C[C@@H](OC(=O)Nc1ccc(-c2c(C#N)c3ccc(-c4cn(C)cn4)cc3n2C2CCC2)cc1)C1CC1` [Compound 3048]: 120 °C (dec.); for `Cc1cc(-c2c(C#N)c3ccc(OCC(F)F)cc3n2C2CCC2)ccc1NC(=O)OC(C)C(F)(F)F` (centres unmarked) [Compound 3049]: 154 to 155 °C.
With `CC(OC(=O)Nc1ccc(-c2c(C#N)c3ccc(OCC(F)F)cc3n2C2CCC2)cc1Cl)C(F)(F)F` (centres unmarked) [Compound 3051], the melting point lay within 184 to 185 °C.
Next, `CC(C)OC(=O)Nc1ccc(-c2c(C#N)c3ccc(OCS(C)(=O)=O)cc3n2C2CC2)cc1` [Compound 3052]: 166 to 187 °C; `C[C@@H](OC(=O)Nc1ccc(-c2c(C#N)c3ccc(OCS(C)(=O)=O)cc3n2C2CC2)cc1)C(F)(F)F` [Compound 3054]: 190 to 196 °C; `Cc1ccnc(Oc2ccc3c(C#N)c(-c4ccc(NC(=O)O[C@H](C)C5CC5)cc4C)n(C4CCC4)c3c2)n1` [Compound 3057]: 95 to 112 °C.
`CCc1cnc(Oc2ccc3c(C#N)c(-c4ccc(NC(=O)O[C@H](C)C5CC5)cc4C)n(C4CCC4)c3c2)nc1` [Compound 3058] came in with a melting point of 181 to 185 °C.
The same measure for `Cc1ccnc(Oc2ccc3c(C#N)c(-c4ccc(NC(=O)O[C@H](C)C5CC5)cc4Cl)n(C4CCC4)c3c2)n1` [Compound 3059]: 97 to 109 °C; for `CCc1cnc(Oc2ccc3c(C#N)c(-c4ccc(NC(=O)O[C@H](C)C5CC5)cc4Cl)n(C4CCC4)c3c2)nc1` [Compound 3060]: 205 to 212 °C.
`CC(C)(C)OC(=O)Nc1ccc(-c2c(C#N)c3ccc(OCS(C)(=O)=O)cc3n2C2CCCC2)cc1` [Compound 3066]: the melting point lay within 237 to 241 °C.
Next, `CC(C)OC(=O)Nc1ccc(-c2c(C#N)c3ccc(OCS(C)(=O)=O)cc3n2C2CCCC2)cc1` [Compound 3067]: 265 to 271 °C; `C[C@@H](OC(=O)Nc1ccc(-c2c(C#N)c3ccc(OCS(C)(=O)=O)cc3n2C2CCCC2)cc1)C1CC1` [Compound 3068]: 218 to 224 °C; `CCOc1ccc2c(C#N)c(-c3ccc(NC(=O)OC4CCN(C(=O)OC(C)(C)C)CC4)cc3)n(C3CCC3)c2c1` [Compound 3069]: 207 to 211 °C.
The same measure for `CCOc1ccc2c(C#N)c(-c3ccc(NC(=O)OC4CCN(S(=O)(=O)CC)CC4)cc3)n(C3CCC3)c2c1` [Compound 3070]: 237 to 242 °C; for `CCOc1ccc2c(C#N)c(-c3ccc(NC(=O)OC4CCN(S(=O)(=O)C5CC5)CC4)cc3)n(C3CCC3)c2c1` [Compound 3071]: 236 to 241 °C.
As for `CCOc1ccc2c(C#N)c(-c3ccc(NC(=O)OC4CCN(C(C)=O)CC4)cc3)n(C3CCC3)c2c1` [Compound 3072], the melting point lay within 211 to 215 °C.
The molecule `CCOc1ccc2c(C#N)c(-c3ccc(NC(=O)OC4CCN(C(=O)OCCOC)CC4)cc3)n(C3CCC3)c2c1` [Compound 3073] returned a melting point of 185 to 190 °C.
With `CCOc1ccc2c(c1)c(C#N)c(-c1ccc(N(S(=O)(=O)CC)S(=O)(=O)CC)cc1)n2CC1CC1` [Compound 3078], the melting point was in the range of 180 to 182 °C.
The same measure for `CCOc1ccc2c(C#N)c(-c3ccc(NC(=O)OCCS(C)(=O)=O)cc3)n(C3CCC3)c2c1` [Compound 3079]: 194 to 195 °C; for `CCOc1ccc2c(C#N)c(-c3ccc(S(=O)(=O)N4CC[C@H](O)C4)cc3)n(C3CCC3)c2c1` [Compound 3085]: 195 to 196 °C; for `CCOc1ccc2c(C#N)c(-c3ccc(S(=O)(=O)N4CCC(O)C4)cc3)n(C3CCC3)c2c1` (centres unmarked) [Compound 3086]: 194 to 196 °C.
Next, `N#Cc1c(-c2ccc(NC(=O)Nc3n[nH]c(C4CC4)n3)cc2)n(C2CCC2)c2cc(Oc3ncccn3)ccc12` [Compound 3087]: 275 °C (dec.).
`CSc1nccc(Oc2ccc3c(C#N)c(-c4ccc(NC(=O)O[C@H](C)C5CC5)cc4)n(C4CCC4)c3c2)n1` [Compound 3089] gave a melting point of 172 to 177 °C.
The same measure for `CSc1nccc(Oc2ccc3c(C#N)c(-c4ccc(NC(=O)OC(C)C)cc4)n(C4CCC4)c3c2)n1` [Compound 3090]: 196 to 201 °C; for `N#Cc1c(-c2ccc(NS(=O)(=O)c3ccccc3)cc2)n(C2CCC2)c2cc(OC3CCOCC3)ccc12` [Compound 3091]: 231 to 233 °C.
The same measure for `CSc1nccc(Oc2ccc3c(C#N)c(-c4ccc(NC(=O)NC(C)C)cc4)n(C4CCC4)c3c2)n1` [Compound 3092]: 238 to 243 °C; for `CCOc1ccc2c([N+](=O)[O-])c(-c3ccc(NC(=O)OC(C)C)cc3)n(CC3CC3)c2c1[N+](=O)[O-]` [Compound 3093]: 112 to 119 °C.
The same measure for `CCCS(=O)(=O)Nc1ccc(-c2c(C#N)c3cc(C(=O)N(C)C)ccc3n2C2CCC2)cc1` [Compound 3094]: 236 to 237 °C; for `CCCS(=O)(=O)Nc1ccc(-c2c(C#N)c3cc(C(=O)N(CC)CC)ccc3n2C2CCC2)cc1` [Compound 3095]: 133 to 134 °C; for `CCCS(=O)(=O)Nc1ccc(-c2c(C#N)c3cc(C(=O)N(C)CC)ccc3n2C2CCC2)cc1` [Compound 3096]: 138 to 139 °C.
Consider `CCCS(=O)(=O)Nc1ccc(-c2c(C#N)c3cc(C(=O)N4CCCC4)ccc3n2C2CCC2)cc1` [Compound 3097], for which the melting point lay in the range of 200 to 202 °C.
Next, `CCCS(=O)(=O)Nc1ccc(-c2c(C#N)c3cc(C(=O)N4CCOCC4)ccc3n2C2CCC2)cc1` [Compound 3098]: 128 to 129 °C; `N#Cc1c(-c2ccc(N)cc2)n(C2CCC2)c2cc(Oc3nccc(N4CCOCC4)n3)ccc12` [Compound 3099]: 149 to 152 °C.
The same measure for `C[C@@H](OC(=O)Nc1ccc(-c2c(C#N)c3ccc(C(=O)N4CCN(C)CC4)cc3n2C2CCC2)cc1)C1CC1` [Compound 3106]: 104 to 106 °C; for `C[C@@H](OC(=O)Nc1ccc(-c2c(C#N)c3ccc(C(=O)N4CCOCC4)cc3n2C2CCC2)cc1)C1CC1` [Compound 3107]: 156 to 158 °C; for `CC1CCN(C(=O)c2ccc3c(C#N)c(-c4ccc(NC(=O)O[C@H](C)C5CC5)cc4)n(C4CCC4)c3c2)CC1` [Compound 3108]: 150 to 153 °C.
Next, `CC(C)NC(=O)COc1ccc(-c2c(C#N)c3ccc(OC4CCOCC4)cc3n2C2CCC2)cc1` [Compound 3109]: 152 to 153 °C.
Consider `C=CCNC(=O)Oc1ccc(-c2c(C#N)c3ccc(OC4CCOCC4)cc3n2C2CCC2)cc1` [Compound 3110], for which the melting point was 167 to 168 °C.
Next, `CN(C)c1ccc(NC(=O)Oc2ccc(-c3c(C#N)c4ccc(OC5CCOCC5)cc4n3C3CCC3)cc2)cc1` [Compound 3111]: 165 to 166 °C.
For the molecule `CN(C(=O)Oc1ccc(-c2c(C#N)c3ccc(OC4CCOCC4)cc3n2C2CCC2)cc1)c1ccccc1` [Compound 3112], the melting point was in the range of 167 to 169 °C.
Next, `CN1CCN(C(=O)c2ccc3c(C#N)c(-c4ccc(NS(=O)(=O)C5CC5)cc4)n(C4CCC4)c3c2)CC1` [Compound 3114]: 124 to 127 °C.
On to `N#Cc1c(-c2ccc(NCCCc3ccccc3)cc2)n(C2CCC2)c2cc(OC3CCOCC3)ccc12` [Compound 3118], for which the melting point fell in the range of 105 to 108 °C.
Next, `CC(C)c1ccc(CNc2ccc(-c3c(C#N)c4ccc(OC5CCOCC5)cc4n3C3CCC3)cc2)cc1` [Compound 3119]: 157 to 159 °C; `N#Cc1c(-c2ccc(NCc3ccccc3F)cc2)n(C2CCC2)c2cc(OC3CCOCC3)ccc12` [Compound 3120]: 180 to 181 °C.
The molecule `Cc1ccccc1CNc1ccc(-c2c(C#N)c3ccc(OC4CCOCC4)cc3n2C2CCC2)cc1` [Compound 3121] registered a melting point of 168 to 172 °C.
Next, `Cc1cc(C)cc(CNc2ccc(-c3c(C#N)c4ccc(OC5CCOCC5)cc4n3C3CCC3)cc2)c1` [Compound 3122]: 104 to 107 °C.
Next, `N#Cc1c(-c2ccc(NCC3CCCCC3)cc2)n(C2CCC2)c2cc(OC3CCOCC3)ccc12` [Compound 3123]: 175 to 177 °C.
As for `CC(C)c1ccc(Nc2ccc(-c3c(C#N)c4ccc(OC5CCOCC5)cc4n3C3CCC3)cc2)cc1` [Compound 3127], the melting point fell in the range of 185 to 188 °C.
Next, `COc1ccc(Nc2ccc(-c3c(C#N)c4ccc(OC5CCOCC5)cc4n3C3CCC3)cc2)cc1` [Compound 3128]: 207 to 210 °C.
Next, `N#Cc1c(-c2ccc(Nc3cccc(OC(F)(F)F)c3)cc2)n(C2CCC2)c2cc(OC3CCOCC3)ccc12` [Compound 3129]: 108 to 110 °C.
The same measure for `COCCOc1ccc2c(C#N)c(-c3ccc(C(=O)N[C@@H](C)c4ccccc4)cc3)n(C3CCC3)c2c1` [Compound 3131]: 149 to 152 °C.
As to `COCCOc1ccc2c(C#N)c(-c3ccc(C(=O)N[C@H](C)c4ccc(F)cc4)cc3)n(C3CCC3)c2c1` [Compound 3132], the melting point was in the range of 169 to 170 °C.
Next, `COCCOc1ccc2c(C#N)c(-c3ccc(C(=O)N[C@H](C)c4ccc(OC)cc4)cc3)n(C3CCC3)c2c1` [Compound 3133]: 156 to 157 °C; `COCCOc1ccc2c(C#N)c(-c3ccc(C(=O)NCc4ccc(F)cc4)cc3)n(C3CCC3)c2c1` [Compound 3134]: 154 to 160 °C; `CCN(CC)C(=O)c1ccc2c(c1)c(C#N)c(-c1ccc(NC(=O)NC(C)C)cc1)n2C1CCC1` [Compound 3136]: 250 °C (dec.).

The record behind these values is patent US7772271B2 (priority 2004, dated 2010).
